Experimental data as given in patent US6511975B1, “Spiropiperidine derivatives” (Sankyo Company, Limited, priority 1998, dated 2003).

Tests used:
Design in all cases: species or system guinea pig
Conditions in all cases: stated in words only
NK2 receptor = target: T1, NK2 receptor (Cavia porcellus, UniProt Q64077); test: NK2 Receptor Binding Test ([3H]-SR-48968, crude ileal membrane specimens)
T1 construct: Crude membrane specimens were prepared from the ileum of male Hartley guinea pigs; from tissue; host or cells: guinea pig ileum (crude membranes)
T1 sequence (Q64077 1-402): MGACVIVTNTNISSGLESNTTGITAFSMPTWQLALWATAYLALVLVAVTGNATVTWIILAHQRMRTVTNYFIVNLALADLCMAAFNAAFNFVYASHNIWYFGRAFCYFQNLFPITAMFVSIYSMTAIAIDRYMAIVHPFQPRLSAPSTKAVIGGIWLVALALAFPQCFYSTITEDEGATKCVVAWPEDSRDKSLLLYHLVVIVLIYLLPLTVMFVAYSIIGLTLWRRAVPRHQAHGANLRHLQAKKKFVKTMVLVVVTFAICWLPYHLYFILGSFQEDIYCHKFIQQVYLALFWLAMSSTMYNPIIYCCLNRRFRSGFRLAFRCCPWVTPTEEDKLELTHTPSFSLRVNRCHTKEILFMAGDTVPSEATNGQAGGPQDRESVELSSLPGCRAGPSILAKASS
Procedure: NK2 Receptor Binding Test
(a) Preparation of Crude Ileal Membrane Specimens
Crude membrane specimens were prepared from the ileum of male Hartley guinea pigs. Namely, the animals were sacrificed by exsanguination from the abdominal aorta under chloroform anesthesia followed promptly by excision of the ileum.
The excised ileum was separated into its contents, secretions and epithelium by scraping with a slide glass. After slicing into thin sections in buffer (1) (50 mM Tris-HCl, pH 7.4), it was homogenized in buffer (2) (buffer (1) containing 120 mM sodium chloride and 5 mM potassium chloride) using a Polytron.
(§1) The tissue mass was removed from the homogenate by passing through a Nylon mesh (50 μm) and separating by centrifugation (30,000×g, 30 minutes, 4° C.).
(§2) The pellet was re-suspended in an ice-cooled Buffer (3) (Buffer (1) containing 10 mM EDTA and 300 mM potassium chloride) and after allowing to stand undisturbed for 60 minutes at 4° C., the resulting suspension was centrifuged and washed twice (30,000×g, 15 minutes, 4° C.).
(§3) The crude membrane specimens were stored at −80° C. until the time of use.
(§4) (b) Receptor Binding Test […]
The filter containing the membrane component was transferred to a mini plastic vial containing 4 ml of Picoflow and radioactivity was measured with a liquid scintillation counter (Beckman. LSC3500).

NK1 receptor = target: T2, NK1 receptor (Cavia porcellus, UniProt P30547); test: NK1 Receptor Binding Test ([3H]-substance P, crude pulmonary membrane specimens)
T2 construct: Crude pulmonary membrane specimens were prepared from the lungs of male Hartley guinea pigs; from tissue; host or cells: guinea pig lung (crude membranes)
T2 sequence (P30547 whole entry): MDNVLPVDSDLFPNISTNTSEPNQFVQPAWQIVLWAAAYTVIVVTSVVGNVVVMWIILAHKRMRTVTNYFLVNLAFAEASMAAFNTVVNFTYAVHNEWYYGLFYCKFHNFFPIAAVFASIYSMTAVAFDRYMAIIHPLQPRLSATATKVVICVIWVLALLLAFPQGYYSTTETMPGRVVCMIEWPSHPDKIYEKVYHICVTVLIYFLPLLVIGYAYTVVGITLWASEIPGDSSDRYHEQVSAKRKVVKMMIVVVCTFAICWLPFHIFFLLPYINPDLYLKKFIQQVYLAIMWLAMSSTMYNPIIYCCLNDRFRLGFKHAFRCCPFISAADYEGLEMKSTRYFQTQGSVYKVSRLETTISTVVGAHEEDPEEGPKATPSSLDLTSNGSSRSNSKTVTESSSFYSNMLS
Procedure: NK1 Receptor Binding Test
(a) Preparation of Crude Pulmonary Membrane Specimens
Crude pulmonary membrane specimens were prepared from the lungs of male Hartley guinea pigs. Namely, the animals were sacrificed by exsanguination from the abdominal aorta under chloroform anesthesia followed promptly by excision of lung and respiratory tract tissue.
After perfusing the excised lungs in buffer (1) (50 mM Tris-HCl, pH 7.4), the lungs were sliced into thin sections and then homogenized in a buffer (2) (buffer (1) containing 120 mM sodium chloride and 5 mM potassium chloride) using a Polytron.
as §1, §2, §3, §4
The filter containing the membrane component was transferred to a mini plastic vial containing 4 ml of Picoflow and radioactivity was measured with a liquid scintillation counter (Beckman, LCS3500).

NK3 receptor = target: T3, NK3 receptor (Cavia porcellus, UniProt P30098); test: NK3 Receptor Binding Test ([3H]-senktide, crude cerebral membrane specimens)
T3 construct: Crude membrane specimens were prepared from the brain of male Hartley guinea pigs; from tissue; host or cells: guinea pig brain (crude membranes)
T3 sequence (P30098 1-440): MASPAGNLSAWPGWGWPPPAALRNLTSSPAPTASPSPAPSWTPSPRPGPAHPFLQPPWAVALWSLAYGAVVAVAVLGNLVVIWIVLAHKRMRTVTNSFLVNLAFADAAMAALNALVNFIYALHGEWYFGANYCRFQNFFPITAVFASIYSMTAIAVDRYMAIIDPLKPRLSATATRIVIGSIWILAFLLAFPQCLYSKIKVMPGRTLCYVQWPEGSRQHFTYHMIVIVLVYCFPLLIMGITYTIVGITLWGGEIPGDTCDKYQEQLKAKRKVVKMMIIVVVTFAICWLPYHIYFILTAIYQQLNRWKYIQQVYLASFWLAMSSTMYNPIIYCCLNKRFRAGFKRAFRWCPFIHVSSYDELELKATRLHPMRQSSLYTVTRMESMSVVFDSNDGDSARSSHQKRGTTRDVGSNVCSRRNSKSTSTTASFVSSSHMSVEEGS
Procedure: NK3 Receptor Binding Test
(a) Preparation of Crude Cerebral Membrane Specimens
Crude membrane specimens were prepared from the brain of male Hartley guinea pigs. Namely, the animals were sacrificed by exsanguination from the abdominal aorta under chloroform anesthesia After perfusing with Buffer (1) (50 mM Tris-HCl, pH 7.4) from the right ventricle, the brain was enucleated immediately. The excised brain was homogenized in buffer (2) (buffer (1) containing 120 mM sodium chloride and 5 mM potassium chloride) using a Polytron. Tissue mass was removed from the homogenate by passing through a Nylon mesh (50 μm) and separating by centrifugation (30,000×g, 30 minutes, 4° C.). […]
The filter containing the membrane component was transferred to a mini plastic vial containing 4 ml of Picoflow and radioactivity was measured with a liquid scintillation counter (Aloka, LSC 3500).
In order to determine the radioactivity due to non-specific binding of [^3H]-senktide (binding to sites other than the receptor, for example, the filter), the Experiment was carried out by adding an excess amount of senktide (final concentration: 10 μM), and the radioactivity was measured.
The inhibitory ratio of senktide-receptor binding due to a test compound was calculated by the following equation. […]
A: radioactivity due to nonspecific binding
B: radioactivity in the test without the addition of a test compound […]

COc1cc(C(=O)N2CCO[C@](CCN3CCC4(CC3)c3ccccc3CC4O)(c3ccc(Cl)c(Cl)c3)C2)cc(OC)c1OC (stereo partly drawn) [Example 1, 1-{2-[(2R)-(3,4-Dichlorophenyl)-4-(3,4,5-trimethoxybenzoyl)morpholin-2-yl]ethyl}spiro[(2-hydroxy)indane-1,4′-piperidine]]
superior to those of Compound A: antagonistic activity against NK2 receptor (NK2 receptor) | antagonistic activity against NK1 receptor (NK1 receptor) | antagonistic activity against NK3 receptor (NK3 receptor)

COc1cc(C(=O)N2CCO[C@](CCN3CCC4(CC3)CC(O)c3ccccc34)(c3ccc(Cl)c(Cl)c3)C2)cc(OC)c1OC (stereo partly drawn) [Example 2, 1-{2-[(2R)-(3,4-Dichlorophenyl)-4-(3,4,5-trimethoxybenzoyl)mopholin-2-yl]ethyl}spiro[(3-hydroxy)indane-1,4′-piperidine]]
superior to those of Compound A: antagonistic activity against NK2 receptor (NK2 receptor) | antagonistic activity against NK1 receptor (NK1 receptor) | antagonistic activity against NK3 receptor (NK3 receptor)
